PMC5504036, “A tricyclic antidepressant, amoxapine, reduces amyloid-β generation through multiple serotonin receptor 6-mediated targets” (Scientific Reports, 2017)

Target: T1, serotonin receptor 6 (HTR6) (Homo sapiens, UniProt P50406)
T1 construct: human HTR6 expressed by lentivirus in SK-N-SH cells
Assay: GloSensor cAMP assay (agonist) in SK-N-SH cells infected with HTR6 lentivirus
Format: cell-based

T1 sequence (P50406 whole entry): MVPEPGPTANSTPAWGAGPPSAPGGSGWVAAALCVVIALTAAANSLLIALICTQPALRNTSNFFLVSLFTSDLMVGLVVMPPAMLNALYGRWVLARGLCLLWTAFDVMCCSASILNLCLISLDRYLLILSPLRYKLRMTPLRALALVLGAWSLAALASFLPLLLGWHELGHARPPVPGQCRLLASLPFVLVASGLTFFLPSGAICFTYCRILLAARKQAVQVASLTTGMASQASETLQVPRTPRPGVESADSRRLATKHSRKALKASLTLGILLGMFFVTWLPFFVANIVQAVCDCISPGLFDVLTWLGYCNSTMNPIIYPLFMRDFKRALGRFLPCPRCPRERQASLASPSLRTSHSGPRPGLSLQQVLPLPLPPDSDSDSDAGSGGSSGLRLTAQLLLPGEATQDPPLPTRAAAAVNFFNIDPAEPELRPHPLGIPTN

Cc1[nH]c2ccc(Cl)cc2c1CCN(C)C [ST1936]
EC50: 1.7 nM
